This is an account of results in ChEMBL document CHEMBL1201862, “PubChem BioAssay data set” (2004).

Among the test systems are SK-MEL-2; A498; SN12C; K562; HCC 2998; OVCAR-4; LOX IMVI; TK-10; NCI-H460; UACC-62; SF-295; SF-268; MDA-MB-435; T47D; SK-MEL-28; UO-31; OVCAR-3; HT-29; U-251; NCI-H522.
Experiment in all cases: inhibition of tumour cell growth, NCI panel, 48 h

Molecules are shown by their SMILES.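 Tested at 5 concentrations; 48 h exposure; 96-well plates; endpoints linearly interpolated, else capped at highest concentration. At the GI50, growth is halved.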 The source made the active and inactive calls. Cut-off read from the data, not from the text of the source: active = GI50 up to about 1.1 µM and inactive = higher.

For the compound `COc1cc(N(CCC#N)CCC#N)ccc1C(/N=N/c1cccc([N+](=O)[O-])c1)=N\NC(=O)c1ccc(C)cc1`, the GI50 was > 100 µM (inactive) with SK-MEL-2; > 100 µM (inactive) in the assay on A498; > 100 µM (inactive) in the assay with SN12C; 73.5 µM (inactive) in the assay on K562; 26 µM (inactive) in the assay with HCC 2998; 53.7 µM (inactive) in the assay on OVCAR-4. In addition, the GI50 in the assay with LOX IMVI was > 100 µM (inactive); with TK-10, 31.7 µM (inactive); with NCI-H460 it was 24.3 µM (inactive); in the assay on UACC-62, > 100 µM (inactive); with SF-295, > 100 µM (inactive); with SF-268, > 100 µM (inactive). Also, the GI50 in the assay with MDA-MB-435 is > 100 µM (inactive); in the assay with T47D, 27.8 µM (inactive); with SK-MEL-28, > 100 µM (inactive); with UO-31 it was 71 µM (inactive); in the assay on OVCAR-3 it was 96.8 µM (inactive); in the assay with HT-29, 92 µM (inactive). Further, the GI50 was > 100 µM (inactive) with U-251 and 26.5 µM (inactive) in the assay on NCI-H522.

For the compound `CCOC(=O)/C=C/C1=C(Br)[C@@]2(C)CC[C@@H]3c4ccc(O)cc4CC[C@H]3[C@@H]2C1`, the GI50 in the assay with SK-MEL-2 is 14.9 µM (inactive); in the assay on A498 it was 18.1 µM (inactive); with SN12C, 13.6 µM (inactive); in the assay with K562 it was 9.98 µM (inactive); in the assay on HCC 2998 it was 14.8 µM (inactive); with OVCAR-4, 14.5 µM (inactive). The GI50 with LOX IMVI is 7.08 µM (inactive); in the assay on TK-10, 17.9 µM (inactive); in the assay on NCI-H460, 14.7 µM (inactive); in the assay on UACC-62, 6.85 µM (inactive); in the assay with SF-295, 15.8 µM (inactive); with SF-268, 19 µM (inactive). Further, the GI50 in the assay with MDA-MB-435 is 15.2 µM (inactive); in the assay with T47D, 4.86 µM (inactive); in the assay with SK-MEL-28 it was 16.4 µM (inactive); in the assay with UO-31, 16.8 µM (inactive); with OVCAR-3, 7.94 µM (inactive); in the assay on HT-29, 14.6 µM (inactive). Moreover, the values for the GI50 with U-251 and in the assay with NCI-H522 were 16.6 µM (inactive) and 4.02 µM (inactive), respectively.

For `COc1ccc(/C=C/NC=O)cc1`, the GI50 in the assay with SK-MEL-2, with A498, in the assay on SN12C, in the assay on K562, with HCC 2998 and with OVCAR-4 was > 100 µM (inactive) each time. The GI50 in the assay on LOX IMVI, with TK-10, in the assay with NCI-H460, in the assay with UACC-62, in the assay on SF-295 and in the assay on SF-268 was > 100 µM (inactive) throughout. Further, the GI50 with MDA-MB-435, in the assay with T47D, in the assay with SK-MEL-28, in the assay on UO-31, with OVCAR-3 and with HT-29 was > 100 µM (inactive) each time. Moreover, the GI50 in the assay with U-251 and with NCI-H522 was > 100 µM (inactive) each time.

As for `CSc1nc(=O)c(C#N)c(-c2ccccc2)n1C1OC(COC(C)=O)C(OC(C)=O)C(OC(C)=O)C1OC(C)=O` (stereo not given), the GI50 with SK-MEL-2, in the assay with A498, in the assay with SN12C, with K562, in the assay with HCC 2998 and in the assay on OVCAR-4 was > 100 µM (inactive) each time. Also, the GI50 in the assay with LOX IMVI is 98.4 µM (inactive); in the assay with TK-10, > 100 µM (inactive); in the assay on NCI-H460 it was 31.3 µM (inactive); in the assay on UACC-62, > 100 µM (inactive); with SF-295, > 100 µM (inactive); with SF-268 it was > 100 µM (inactive). The GI50 was > 100 µM (inactive) with MDA-MB-435; 86.3 µM (inactive) in the assay on T47D; > 100 µM (inactive) in the assay on SK-MEL-28; 39.2 µM (inactive) in the assay with UO-31; 78.3 µM (inactive) in the assay with OVCAR-3; > 100 µM (inactive) in the assay with HT-29. Also, the GI50 in the assay on U-251 and in the assay with NCI-H522 was > 100 µM (inactive) each time.

For `O=[N+]([O-])c1ccc(-c2cc(O)c3nc4ccccc4n3c2)cc1`, the GI50 in the assay on SK-MEL-2, with A498, with SN12C, with K562, with HCC 2998 and in the assay with OVCAR-4 was > 100 µM (inactive) throughout. The GI50 was > 100 µM (inactive) in the assay with LOX IMVI; > 100 µM (inactive) with TK-10; > 100 µM (inactive) with NCI-H460; > 31.6 µM (inactive) in the assay with UACC-62; > 100 µM (inactive) in the assay on SF-295; > 56.5 µM (inactive) in the assay on SF-268. Moreover, the GI50 in the assay with MDA-MB-435 is > 31.6 µM (inactive); in the assay on T47D, 74 µM (inactive); with SK-MEL-28, > 100 µM (inactive); with UO-31 it was > 91.4 µM (inactive); in the assay with OVCAR-3, > 100 µM (inactive); with HT-29, > 100 µM (inactive). The GI50 in the assay with U-251 was 28.1 µM (inactive); in the assay with NCI-H522, > 93.1 µM (inactive).

On to `CC(=O)c1ccc(Br)cc1NC1=CC(=O)c2ncccc2C1=O`, for which the GI50 in the assay on SK-MEL-2 was 4.09 µM (inactive); with A498, 1.57 µM (inactive); in the assay with SN12C, 7 µM (inactive); in the assay on K562 it was 1.49 µM (inactive); in the assay on HCC 2998, 3.22 µM (inactive); in the assay with OVCAR-4, 1.83 µM (inactive). For the same compound, the GI50 in the assay on LOX IMVI was 5.79 µM (inactive); in the assay with TK-10, 17.6 µM (inactive); with NCI-H460, 1.12 µM (active); in the assay with UACC-62, 2.58 µM (inactive); with SF-295, 4.62 µM (inactive); in the assay on SF-268, 7.26 µM (inactive). Further, the GI50 in the assay with MDA-MB-435 was 1.69 µM (inactive); in the assay with T47D, 3.85 µM (inactive); in the assay with SK-MEL-28 it was 6.79 µM (inactive); with UO-31, 3.86 µM (inactive); in the assay with OVCAR-3, 1.61 µM (inactive); with HT-29, 3.24 µM (inactive). In addition, the results for the GI50 with U-251 and in the assay with NCI-H522 were 6.22 µM (inactive) and 3.27 µM (inactive), respectively.

In the case of `CN(C)CC1CN/C(=N\C(=O)Nc2ccccc2)O1` (stereo not given), the GI50 with SK-MEL-2 was > 100 µM (inactive); in the assay with A498, 42.3 µM (inactive); with SN12C it was > 100 µM (inactive); in the assay with K562, > 100 µM (inactive); with HCC 2998, > 100 µM (inactive); in the assay on OVCAR-4 it was > 100 µM (inactive). The GI50 in the assay with LOX IMVI, with TK-10, in the assay on NCI-H460, in the assay with UACC-62, with SF-295 and in the assay on SF-268 was > 100 µM (inactive) in each case. Moreover, the GI50 with MDA-MB-435 is > 100 µM (inactive); with T47D it was > 100 µM (inactive); in the assay with SK-MEL-28, > 100 µM (inactive); in the assay with UO-31 it was > 100 µM (inactive); in the assay on OVCAR-3 it was > 10 µM (inactive); with HT-29, > 100 µM (inactive). Further, the GI50 in the assay with U-251 and in the assay with NCI-H522 was > 100 µM (inactive) in each case.

`CC(=O)/N=C1\C=C(NC(C)=O)C(=O)c2ccccc21`: the GI50 in the assay with SK-MEL-2 was 3.09 µM (inactive); in the assay with A498 it was 15.2 µM (inactive); with SN12C, 1.78 µM (inactive); with K562, 2.04 µM (inactive); in the assay with HCC 2998 it was 17.7 µM (inactive); in the assay with OVCAR-4, 1.66 µM (inactive). The GI50 in the assay on LOX IMVI was 1.68 µM (inactive); in the assay with TK-10, 5.64 µM (inactive); with NCI-H460 it was 5.08 µM (inactive); with UACC-62 it was 2.35 µM (inactive); in the assay with SF-295, 3.68 µM (inactive); with SF-268, 3.18 µM (inactive). In addition, the GI50 in the assay with MDA-MB-435 is 1.82 µM (inactive); in the assay with T47D it was 1.48 µM (inactive); with SK-MEL-28, 3 µM (inactive); in the assay on UO-31 it was 2.04 µM (inactive); with OVCAR-3, 2.01 µM (inactive); with HT-29 it was 2.58 µM (inactive). For the same compound, the values for the GI50 with U-251 and in the assay on NCI-H522 were 2.99 µM (inactive) and 1.33 µM (inactive), respectively.

With `FC(F)(F)c1ccc2c(c1)nc(Cc1ccccc1)n2C[C@@H]1CCCN2CCCCC12` (stereo not given in full), the GI50 was 16.3 µM (inactive) in the assay with SK-MEL-2; 15.5 µM (inactive) with A498; 13.1 µM (inactive) with SN12C; 18.9 µM (inactive) in the assay with K562; 4.68 µM (inactive) with HCC 2998; 15.2 µM (inactive) in the assay on OVCAR-4. The GI50 was 15.1 µM (inactive) with LOX IMVI; 17.1 µM (inactive) in the assay on TK-10; 15.2 µM (inactive) with NCI-H460; 16.7 µM (inactive) with UACC-62; 15.8 µM (inactive) with SF-295; 14.8 µM (inactive) in the assay on SF-268. The GI50 with MDA-MB-435 is 14.9 µM (inactive); in the assay with T47D, 14.4 µM (inactive); with SK-MEL-28, 16.2 µM (inactive); in the assay with UO-31, 0.19 µM (active); in the assay on OVCAR-3, 14.8 µM (inactive); in the assay on HT-29, 12 µM (inactive). The GI50 with U-251 was 15.7 µM (inactive); with NCI-H522, 14 µM (inactive).

For `COc1ccc(C2c3cc4c(cc3C(O)C3CCC(=O)N23)OCO4)cc1` (stereo not given), the GI50 in the assay on SK-MEL-2, in the assay with A498, in the assay on SN12C, with K562, in the assay with HCC 2998 and in the assay on OVCAR-4 was > 100 µM (inactive) each time. Also, the GI50 in the assay on LOX IMVI, in the assay on TK-10, in the assay with NCI-H460, in the assay with UACC-62, in the assay on SF-295 and with SF-268 was > 100 µM (inactive) throughout. Further, the GI50 with MDA-MB-435, in the assay with T47D, in the assay with SK-MEL-28, in the assay with UO-31, in the assay on OVCAR-3 and in the assay with HT-29 was > 100 µM (inactive) throughout. In addition, the GI50 with U-251 and with NCI-H522 was > 100 µM (inactive) in each case.
